# Results reported in US20250108038A1 (priority 2023, published 2025).
# Columns and labels:
# C57BL/6 mice = assay: Tail Suspension Test; format: in vivo, mouse; details: for Dunnett's Multiple Comparison Test Mean Diff., immobility on the TST: percent immobility
# Source text: The Tail Suspension Test is a mouse behavioral test useful for screening for potential antidepressant drugs. The tail suspension test is an experimental method used in scientific research to measure a state of being helpless in rodents, especially in mice. It is based on the observation that if a mouse is subjected to short term inescapable stress, then it will stop struggling. Immobility is quantified by measuring the amount of time lacking whole-body activity.
# A cohort of 32 adult male mice was used for locomotor activity and a separate cohort of 40 male mice were used for tail suspension (C57BL/6, 7-8 weeks old; body weights 18-25 g, Charles River Laboratories). Upon arrival at the facility, animals were group-housed (5/cage) with access to food and water ad libitum. Animals were maintained on a 12/12-hour light/dark cycle in a temperature—(22±2° C.) and humidity—(approx. 50%) controlled room. Animals were numbered consecutively by tail ID marker in each home cage. Each home cage was identified by a colored ID card indicating the study number, sex, animal numbers and date of birth.
# Animals (8/group) were injected (10 mL/kg, ip) 30 min prior to the TST. For locomotor activity monitoring, mice were injected (10 mL/kg, ip; around 12-1 pm) after a full 24 hr period of recordings were collected for baseline activity. For both locomotor activity recordings and TST, PV-03446 doses included 0.3, 1, 3, and 10 mg/kg.
# Tail Suspension Test: A piezoelectric sensor operated by the SmartCage system was utilized and video recording was conducted for scoring. Once animals were acclimated to the testing room, the TST was initiated by placing the tail of the test mouse onto the piezoelectric sensor-board and hanging the mouse upside down. The recording period was initiated once the mouse was upside down and lasted for 6 min. At the end of the recording period, the mouse was removed from the recording device and returned to its home cage. The immobilized time, indicating depression-like behavior, was quantified using manual scoring of the video recording from 120 seconds to 360 seconds during the TST. The percent immobility time was calculated as (immobility time (seconds)/240 seconds)*100.
# Group differences found to have normal distribution were evaluated using a 1-way ANOVA followed by a Dunnett's Multiple Comparison Test to compare all treatment groups to the vehicle control. Statistical significance was set at p≤0.05.
# CYP3A4 = CYP3A4 (Homo sapiens, UniProt P08684); assay: in vitro; details: both, pH 7.4, Inhibition at Highest Test Article Concentration
# Sequence of CYP3A4 (P08684 whole entry): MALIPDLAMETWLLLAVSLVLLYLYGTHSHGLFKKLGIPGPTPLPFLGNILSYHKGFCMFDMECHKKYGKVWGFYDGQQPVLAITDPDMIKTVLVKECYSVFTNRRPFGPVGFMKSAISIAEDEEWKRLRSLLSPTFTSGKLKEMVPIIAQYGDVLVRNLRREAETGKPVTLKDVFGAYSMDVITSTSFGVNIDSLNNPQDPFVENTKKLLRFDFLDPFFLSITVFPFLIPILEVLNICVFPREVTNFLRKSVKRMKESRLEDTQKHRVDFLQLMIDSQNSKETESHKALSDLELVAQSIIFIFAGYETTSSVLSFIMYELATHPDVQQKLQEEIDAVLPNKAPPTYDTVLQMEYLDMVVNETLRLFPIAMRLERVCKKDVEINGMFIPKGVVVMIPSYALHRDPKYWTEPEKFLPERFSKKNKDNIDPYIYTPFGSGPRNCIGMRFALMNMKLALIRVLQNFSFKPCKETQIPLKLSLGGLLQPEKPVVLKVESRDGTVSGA
# [1] = Stability in beagle dog plasma
# Method: Pooled (N≥3) male SD rat, beagle dog and mixed gender human plasma with EDTA-K2 as anticoagulant were purchased from BioIVT (NY, USA) and stored in a −70° C. freezer before use.
# Incubations were conducted in 96-well plate format. The time points defined for this study are 0, 5, 15, 30 and 60 minutes.
# For positive controls, the rat plasma was spiked with enalapril, the dog plasma spiked with bisacodyl and the human plasma was spiked with propantheline. All spiked plasma sample plates were incubated in a water bath at 37° C. with shaking.
# At end of each time point, samples were immediately quenched with three volume of cold quenching solution. All sample plates were mixed thoroughly by shaking for approximately 10 minutes and centrifuged at 3220×g for 15 minutes. Subsequently, 100 μL of supernatant was removed from each well, mixed with 100 μL water in a new 96-well plate and subjected to LC-MS/MS analysis.
# Concentrations of test article, metabolite, and control compounds in the samples were analyzed by LC-MS/MS semi-quantitatively. […] The peak area ratios of analyte/internal standard were used to semi-quantitatively determine the concentrations.
# The peak area ratios (PAR) of analyte/internal standard were used to semi-quantitatively determine the concentration of test article and control compounds, and calculate the percent remaining with the following equation:
# The elimination rate (ke) was calculated from a log linear plot of % remaining versus time. The half-life was calculated using the following equation:
smiles,measurement,setting,value
Clc1ccc(C2(OCC3OCCO3)c3ccccc3C3=NCCN32)cc1 (stereo not drawn) [Compound I-19],"One-way analysis of variance F, immobility on the TST","C57BL/6 mice; 0.3, 1.0, 3.0, 10.0 mg/kg IP vs control, 5 groups",4.71
same,immobility (%),"C57BL/6 mice; 0.3, 1.0, 3.0 and 10.0 mg/kg, IP, 30 min prior to TST",significant reduction in immobility (%) at all doses tested
same,decrease of immobility compared to vehicle,"C57BL/6 mice; 0.3-10 mg/kg IP, depending on the dose",26-38%
same,"Dunnett's Multiple Comparison Test Significant? P < 0.05?, immobility on the TST",C57BL/6 mice; Control vs 0.3 mg/kg IP,Yes
same,"Dunnett's Multiple Comparison Test q, immobility on the TST",C57BL/6 mice; Control vs 0.3 mg/kg IP,2.592
same,"Dunnett's Multiple Comparison Test Mean Diff., immobility on the TST",C57BL/6 mice; Control vs 0.3 mg/kg IP,19.9
same,"Dunnett's Multiple Comparison Test Significant? P < 0.05?, immobility on the TST",C57BL/6 mice; Control vs 1.0 mg/kg IP,Yes
same,"Dunnett's Multiple Comparison Test q, immobility on the TST",C57BL/6 mice; Control vs 1.0 mg/kg IP,3.739
same,"Dunnett's Multiple Comparison Test Mean Diff., immobility on the TST",C57BL/6 mice; Control vs 1.0 mg/kg IP,28.7
same,"Dunnett's Multiple Comparison Test Significant? P < 0.05?, immobility on the TST",C57BL/6 mice; Control vs 3.0 mg/kg IP,Yes
same,"Dunnett's Multiple Comparison Test q, immobility on the TST",C57BL/6 mice; Control vs 3.0 mg/kg IP,3.773
same,"Dunnett's Multiple Comparison Test Mean Diff., immobility on the TST",C57BL/6 mice; Control vs 3.0 mg/kg IP,28.96
same,"Dunnett's Multiple Comparison Test Significant? P < 0.05?, immobility on the TST",C57BL/6 mice; Control vs 10.0 mg/kg IP,Yes
same,"Dunnett's Multiple Comparison Test q, immobility on the TST",C57BL/6 mice; Control vs 10.0 mg/kg IP,2.626
same,"Dunnett's Multiple Comparison Test Mean Diff., immobility on the TST",C57BL/6 mice; Control vs 10.0 mg/kg IP,20.16
"OC1(c2ccc(Cl)cc2)c2ccccc2C2=NCCN21 (stereo not drawn) [Compound A, 5-(4-chlorophenyl)-2,3-dihydroimidazo[1,2-b]isoindol-5-ol, reference compound]",inhibition at 10 µM,"CYP3A4; 3A4, Midazolam",11.7%
same,inhibition at 10 µM,"CYP3A4; 3A4, Testosterone",14%
COCCOC1(c2ccc(Cl)cc2)c2ccccc2C2=NCCN21 (stereo not drawn) [Compound I-4],Compound A formed (Aa/Ai),[1]; 0 min,0.48
same,% Remaining,"[1]; 2.0 μM, 0 min",100%
same,Aa/Ai Mean (N = 2),"[1]; 2.0 μM, 0 min",2.24
same,% Remaining,"[1]; 2.0 μM, 5 min",93.5%
same,Aa/Ai Mean (N = 2),"[1]; 2.0 μM, 5 min",2.10
same,% Remaining,"[1]; 2.0 μM, 15 min",92.0%
same,Aa/Ai Mean (N = 2),"[1]; 2.0 μM, 15 min",2.07
same,% Remaining,"[1]; 2.0 μM, 30 min",89.2%
same,Aa/Ai Mean (N = 2),"[1]; 2.0 μM, 30 min",2.00
same,% Remaining,"[1]; 2.0 μM, 60 min",83.7%
same,Aa/Ai Mean (N = 2),"[1]; 2.0 μM, 60 min",1.88
same,T1/2,"[1]; 2.0 μM, 60 min incubation",>3.12 h
same,Compound A formed (Aa/Ai),[1]; 5 min,0.46
same,Compound A formed (Aa/Ai),[1]; 15 min,0.46
same,Compound A formed (Aa/Ai),[1]; 30 min,0.42
same,Compound A formed (Aa/Ai),[1]; 60 min,0.39
